Experimental data from patent US20260109732A1, “LIPID AMINES” (ModernaTX, Inc., priority 2021, published 2026).
Where a name gives a salt, the structure may show the parent alone.

Assays:
[1] = Encapsulation of mRNA nanoparticles with lipid amines using Ribogreen assay; type: physicochemical
Method in brief: (§1)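 Ionizable lipid nanoparticles (IL1:DSPC:cholesterol:PEG-DMG-2K) formed by vortex mixing at pH 4, loaded with luciferase or CFTR mRNA at N:P 4.93, neutralized with TRIS pH 8.12, then modified with lipid amine SA50 at pH 7.5. Particle diameter and PDI read by DLS; mRNA encapsulation by Ribogreen assay.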

[2] = Diameter and PDI from DLS measurements of mRNA nanoparticles with lipid amines; type: physicochemical
Method in brief: as §1

HeLa cells [3] = test: Luciferase Protein Expression Assay in HeLa Cells; type: cell-based, Human; details: LNPs encapsulating Luciferase mRNA, 25 ng per well, N=4 wells; 5 h serum-free then 24 h; ONE-Glo
Method in brief: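 HeLa cells received LNPs carrying luciferase mRNA (25 ng per well) or PBS in serum-free MEM for 5 h, then complete MEM for a further 24 h. Luciferase then read by ONE-Glo luminescence after lysis and reported as average RLU of 4 replicate wells.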

HeLa cells [4] = test: CFTR Protein Expression Assay in HeLa Cells; type: cell-based, Human; details: LNPs encapsulating CFTR mRNA, N=4 wells; 5 h serum-free then 24 h; immunofluorescence vs PBS control
Method in brief: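 HeLa cells dosed with CFTR mRNA LNPs (70 mM NaCl final buffer matrix) in serum-free MEM for 5 h, then complete MEM for 24 h. Fixed cells immunostained with anti-CFTR monoclonal and Alexa 488 secondary, imaged confocally; CFTR intensity per cell expressed as fold-change versus PBS buffer control, N=4 wells.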

[5] = CFTR mRNA nanoparticle with lipid amine
[6] = Luciferase mRNA nanoparticle modified with lipid amine

Row | SMILES | % Encapsulation (Ribogreen) [1, 5] [%] | % Encapsulation (Ribogreen) [1, 6] [%] | Diameter (nm) [2, 5] [nm] | PDI [2, 5] | Diameter (nm) [2, 6] [nm] | PDI [2, 6] | Average Relative Light Units ± Standard Deviation (HeLa cells [3]) [Relative Light Units] | Average fold-change in CFTR signal intensity per cell compared to buffer control ± standard deviation (HeLa cells [4]) [fold-change]
1 | CC[C@H](CC[C@@H](C)[C@H]1CC[C@H]2[C@@H]3CC=C4C[C@@H](SSCCC(=O)N(CCCCCCCC(C)(C)N)CCC(C)(C)N)CC[C@]4(C)[C@H]3CC[C@]12C)C(C)C [SA179, N-(3-amino-3-methylbutyl)-N-(8-amino-8-methylnonyl)-3-(((3S,8S,9S,10R,13R,14S,17R)-17-((2R,5R)-5-ethyl-6-methylheptan-2-yl)-10,13-dimethyl-2,3,4,7,8,9,10,11,12,13,14,15,16,17-tetradecahydro-1H-cyclopenta[a]phenanthren-3-yl)disulfaneyl)propanamide dihydrochloride] | 99.8 | 99.0 | 73 | 0.15 | 73 | 0.17 | 12298.9 ± 928.6 | 7.0 ± 0.6
2 | CC[C@H](CC[C@@H](C)[C@H]1CC[C@H]2[C@@H]3CC=C4C[C@@H](SSCCC(=O)N(CCCCNCCC(N)(CC)CC)CCC(N)(CC)CC)CC[C@]4(C)[C@H]3CC[C@]12C)C(C)C [SA181, N-(3-amino-3-ethylpentyl)-N-(4-((3-amino-3-ethylpentyl)amino)butyl)-3-(((3S,8S,9S,10R,13R,14S,17R)-17-((2R,5R)-5-ethyl-6-methylheptan-2-yl)-10,13-dimethyl-2,3,4,7,8,9,10,11,12,13,14,15,16,17-tetradecahydro-1H-cyclopenta[a]phenanthren-3-yl)disulfaneyl)propanamide trihydrochloride] | 98.7 | 99.5 | 69 | 0.13 | 74 | 0.16 | 12107.3 ± 1481.4 | 6.3 ± 0.4
3 | CC[C@H](CC[C@@H](C)[C@H]1CC[C@H]2[C@@H]3CC=C4C[C@@H](OC(=O)CCCC(=O)N(CCCCNCCC(N)(CC)CC)CCC(N)(CC)CC)CC[C@]4(C)[C@H]3CC[C@]12C)C(C)C [SA182, (3S,8S,9S,10R,13R,14S,17R)-17-((2R,5R)-5-ethyl-6-methylheptan-2-yl)-10,13-dimethyl-2,3,4,7,8,9,10,11,12,13,14,15,16,17-tetradecahydro-1H-cyclopenta[a]phenanthren-3-yl 5-((3-amino-3-ethylpentyl)(4-((3-amino-3-ethylpentyl)amino)butyl)amino)-5-oxopentanoate trihydrochloride] | 98.0 | 99.0 | 72 | 0.13 | 73 | 0.14 | 38564.9 ± 12453 | 13.2 ± 0.9
4 | CC[C@H](CC[C@@H](C)[C@H]1CC[C@H]2[C@@H]3CC=C4C[C@@H](OC(=O)N(CCCCNCCC(N)(CC)CC)CCC(N)(CC)CC)CC[C@]4(C)[C@H]3CC[C@]12C)C(C)C [SA183, (3S,8S,9S,10R,13R,14S,17R)-17-((2R,5R)-5-ethyl-6-methylheptan-2-yl)-10,13-dimethyl-2,3,4,7,8,9,10,11,12,13,14,15,16,17-tetradecahydro-1H-cyclopenta[a]phenanthren-3-yl (3-amino-3-ethylpentyl)(4-((3-amino-3-ethylpentyl)amino)butyl)carbamate trihydrochloride] | 99.0 | 99.6 | 71 | 0.14 | 76 | 0.21 | 33915.2 ± 6639.9 | 13.6 ± 0.7
5 | CCC(N)(CC)CCNCCCCN(CCC(N)(CC)CC)C(=O)CCSS[C@H]1CC[C@@]2(C)C(=CC[C@H]3[C@@H]4CC[C@H]([C@H](C)CCCC(C)C)[C@@]4(C)CC[C@@H]32)C1 [SA184, N-(3-amino-3-ethylpentyl)-N-(4-((3-amino-3-ethylpentyl)amino)butyl)-3-(((3S,8S,9S,10R,13R,14S,17R)-10,13-dimethyl-17-((R)-6-methylheptan-2-yl)-2,3,4,7,8,9,10,11,12,13,14,15,16,17-tetradecahydro-1H-cyclopenta[a]phenanthren-3-yl)disulfaneyl)propanamide trihydrochloride] | 99.0 | 98.8 | 71 | 0.13 | 74 | 0.12 | 26222.4 ± 4612.1 | 11.3 ± 0.7
6 | CCC(N)(CC)CCNCCCCN(CCC(N)(CC)CC)C(=O)CCCC(=O)O[C@H]1CC[C@@]2(C)C(=CC[C@H]3[C@@H]4CC[C@H]([C@H](C)CCCC(C)C)[C@@]4(C)CC[C@@H]32)C1 [SA185, (3S,8S,9S,10R,13R,14S,17R)-10,13-dimethyl-17-((R)-6-methylheptan-2-yl)-2,3,4,7,8,9,10,11,12,13,14,15,16,17-tetradecahydro-1H-cyclopenta[a]phenanthren-3-yl 5-((3-amino-3-ethylpentyl)(4-((3-amino-3-ethylpentyl)amino)butyl)amino)-5-oxopentanoate trihydrochloride] | 98.6 | 99.4 | 73 | 0.16 | 75 | 0.16 | 36168.3 ± 7638.9 | 14.2 ± 1.0
